In publication PMC11680018, “Study of Cytotoxicity of Spiro-Fused [3-Azabicyclo[3.1.0]hexane]oxindoles and Cyclopropa[a]pyrrolizidine-oxindoles Against Tumor Cell Lines” (Pharmaceuticals, 2024):
Where “and” joins values, the source holds several entries; their conditions need not be identical. Equal values may be shown once.

What was measured:
[1] = test system: human melanoma (Sk-mel-2) cell line; assay: Cell motility by scratch test; assay type: cell-based; conditions: 10 μg/mL, 36 h, serum-free DMEM; nontreated cells 69.5 ± 17.2
Experimental: To assess the potential ability of spiro-fused [3-azabicyclo[3.1.0]hexane]oxindoles 4, 11, 12, 18, 24 and cyclopropa[a]pyrrolizidine-2,3′-oxindole 2 to inhibit metastasis associated with cell motility, a scratch test was performed on the human melanoma (Sk-mel-2) cell line. Different fields were analyzed by bright field, and each scratch area was photographed at 0 and 36 h for non-toxic and fast cell visualization. Nontreated Sk-mel-2 cells filled 69.5 ± 17.2, 41.5 ± 5.3, 59.7 ± 8.1, 49.3 ± 5.3, 43.0 ± 12.6, 26.1 ± 2.5 and 55.9 ± 8.6% of the scratched strip while under treatment with spiro-fused oxindole derivatives 2, 4, 11, 12, 18 and 24 cells, respectively.
Cells were seeded at a density of 5 × 10^5 cells per dish onto petri dishes and grown to confluency. A 200 μL pipette tip was used to make scratch wounds and detached cells were removed after that by washing with phosphate-buffered saline. Culture media was replaced with serum-free DMEM in order to inhibit cell proliferation. Compounds to be screened were added at a dose of 10 μg/mL to the cultures and incubated for 36 h. Different fields were analyzed by bright field, and each scratch area was photographed at 0 and 36 h. Images were captured using an Axio Observer Z1 confocal microscope (Carl Zeiss MicroImaging GmbH, Jena, Germany). The percent of wound closure in five randomly chosen fields was calculated with ImageJ software, 1.52v.

K562 cells = assay: Cell cycle analysis by flow cytometry; assay type: cell-based, human; conditions: 24 h; for K562 cells in SubG1 phase: control 4.5 ± 0.9; for K562 cells in G2/M phase: control 23.1 ± 1.7; for K562 cells in S phase: control 31.9 ± 1.0; for K562 cells in G0/G1 phase: control 40.5 ± 1.3; for Total percentage of K562 cells in the SubG1 and G0/G1 phases: control 45.0%
Description: Since growth inhibition may be a result of cell cycle arrest at a particular point, the specific antiproliferative activity of several cycloadducts was further evaluated by flow cytometry to study their impact on the progression of the cell cycle in K562 cells. The assay utilizes propidium iodide-based staining of DNA content to distinguish and measure the accumulation of cells in each cell cycle phase (SubG, G0/G1, S and G2/M).
The distribution of K562 cells in the G0/G1-, S- and G2/M-phases of the cell cycle was obtained by quantification of DNA content using flow cytometry in DAPI-stained cells. Briefly, cells were seeded at a density of 5 × 10^4 cells per well in 24-well plates. […] After incubation with drugs, the cells were harvested by pipetting. This was followed by treatment with 0.2 mg/mL saponin (Fluka, Waltham, MA, USA) and 0.05 mg/mL DAPI (Thermo scientific, Rockford, IL, USA). After washing, the samples were analyzed using a standard flow cytometer (BD FACSCanto II, Becton Dickinson, San Jose, CA, USA). A total of 10,000 events were acquired for the samples. Data processing was performed using the BD FACSDiva 9.0 software.

SMILES | Part of the scratched strip filled by Sk-mel-2 cells [1] | K562 cells in SubG1 phase (K562 cells; 5 μg/mL) | K562 cells in G2/M phase (K562 cells; 5 μg/mL) | K562 cells in S phase (K562 cells; 5 μg/mL) | K562 cells in G0/G1 phase (K562 cells; 5 μg/mL) | K562 cells in SubG1 phase (K562 cells; 10 μg/mL) | K562 cells in G2/M phase (K562 cells; 10 μg/mL) | K562 cells in S phase (K562 cells; 10 μg/mL) | K562 cells in G0/G1 phase (K562 cells; 10 μg/mL) | Total percentage of K562 cells in the SubG1 and G0/G1 phases (K562 cells; 10 μg/mL) | K562 cells in SubG1 phase (K562 cells; 20 μg/mL) | K562 cells in G2/M phase (K562 cells; 20 μg/mL) | K562 cells in S phase (K562 cells; 20 μg/mL) | K562 cells in G0/G1 phase (K562 cells; 20 μg/mL)
O=C1Nc2ccc([N+](=O)[O-])cc2C12N1CCCC1C1(c3ccccc3)C(c3ccccc3)C12c1ccccc1 (centres unmarked) [Compound 2] | 41.5 ± 5.3% | 5.3 ± 0.3% | 17.4 ± 0.4% | 29.5 ± 0.6% | 47.7 ± 0.5% | 7.7% and 7.7 ± 0.4% | 7.8 ± 0.3% | 15.6 ± 0.4% | 68.8 ± 0.5% | 74.0–77.5% | 5.8 ± 0.3% | 7.3 ± 0.2% | 14.5 ± 0.2% | 72.5 ± 0.5%
CC[C@H](C)C1NC2(C(=O)Nc3ccccc32)C2(c3ccccc3)C(C(=O)OC)C12c1ccccc1 (some centres unmarked) [Compound 4] | 59.7 ± 8.1% | 4.3 ± 0.2% | 16.5 ± 0.2% | 26.6 ± 0.7% | 52.6 ± 0.7% | 4.8 ± 0.5% | 11.9 ± 0.6% | 26.4 ± 0.3% | 56.9 ± 0.6% | – | 4.9 ± 0.2% | 6.9 ± 0.4% | 17.4 ± 0.4% | 71.2 ± 0.4%
CC(C)C1NC2(C(=O)Nc3ccccc32)C2(c3ccccc3)C(c3ccccc3)C12c1ccccc1 (centres unmarked) [Compound 8] | – | 2.1 ± 0.1% | 9.2 ± 0.3% | 25.7 ± 0.1% | 63.1 ± 0.4% | 4.1 ± 0.2% | 5.9 ± 0.2% | 16.6 ± 0.2% | 73.5% and 73.5 ± 0.5% | 74.0–77.5% | 3.6 ± 0.2% | 7.1 ± 0.1% | 17.0 ± 0.2% | 72.4 ± 0.2%
COC(=O)C1C2(c3ccccc3)C(Cc3ccc(O)cc3)NC3(C(=O)Nc4ccccc43)C12c1ccccc1 (centres unmarked) [Compound 17] | – | 2.5 ± 0.3% | 16.7 ± 1.0% | 25.1 ± 0.4% | 55.6 ± 0.3% | 5.3 ± 0.4% | 8.8 ± 0.4% | 14.3 ± 0.1% | 71.5 ± 0.5% | 74.0–77.5% | 1.8 ± 0.2% | 7.2 ± 0.3% | 16.4 ± 0.5% | 74.5 ± 0.8%
NC(=O)CC1NC2(C(=O)Nc3ccccc32)C2(c3ccccc3)C(c3ccccc3)C12c1ccccc1 (centres unmarked) [Compound 18] | 26.1 ± 2.5% | 3.2 ± 0.1% | 14.4 ± 0.5% | 31.4 ± 0.1% | 51.0 ± 0.7% | 3.9 ± 0.2% | 7.0 ± 0.4% | 19.0 ± 0.6% | 70.1 ± 0.5% | 74.0–77.5% | 3.6 ± 0.1% | 8.6 ± 0.3% | 22.8 ± 0.4% | 65.0 ± 0.4%
CSCCC1NC2(C(=O)Nc3ccccc32)C2(c3ccccc3)C(c3ccccc3)C12c1ccccc1 (centres unmarked) [Compound 24] | 55.9 ± 8.6% | – | – | – | – | – | – | – | – | – | – | – | – | –
